In patent US7388096B2, “Crystalline forms of a factor Xa inhibitor” (Bristol-Myers Squibb Company, priority 2004, dated 2008):
“Also recorded” adds a separate entry of the source. One block for each compound: values may come before it.

Columns and labels:
Type in all cases: physicochemical
[1] = form conversion in slurry / relative thermodynamic stability of polymorphs
Protocol: (§1) SSNMR and XRPD indexing studies have proven that Form N-3 is a single phase. No significant weight loss was observed up to about 250° C. in TGA analysis. […] Form N-3 has the tendency to form small primary particles (<10 μm) of the shape of needles or rods.
(§2) P-1 is a desolvated phase obtained by drying the initial material (potential solvates) crystallized from the reaction mixture. P-1 has never been observed in slurry, and therefore there is no evidence to support assignment of P-1 as a single and neat phase that is crystallized directly from the reaction mixture. […] P-1 can also convert to Form N-2 upon heating at 230° C. in solid state.
A Good Laboratory Practice batch (˜550 g) of Form N-3 has been manufactured successfully by converting P-1 material using a slurry method in acetone at about 50° C. Acetone slurries of Form P-1 spiked at about 50° C. with 1% water still yield Form N-3, but the slurries spiked with 5% and 10% water result in P-3 (solvated) material. […] The hemi sec BuOH solvate, form 0.5SBU-4, converts to form N-2 upon heating. […] Form N-1 also undergoes a solid state transition to Form N-2 upon heating at about 90 to 130° C. In addition, P-1 converts to potential solvate/hydrate forms by slurrying in different solvent systems, e.g., MeOH/EtOAc, DMF/H2O, DMSO/H2O, NMP/H2O at room temperature or at about 50° C.

[2] = accelerated stability studies (physical stability, XRPD of stressed samples); conditions: for physical stability in accelerated stability studies: 40° C./75% RH/Open/4 Weeks and 50° C./Closed/4 Weeks
Protocol: as §1
Form N-1 undergoes a solid-state transition at about 90° C. as evidenced by hot-stage microscopy studies and converts to Form N-2 at about 90° C. which is confirmed by […] studies. Thermal analysis by DSC (FIG. 8) and TGA show a small exotherm at about 113° C., which is attributed to the solid-state transition to Form N-2, followed by a melting endotherm at about 255 to about 259° C. similar to the melting range for Form N-2.
as §2

[3] = moisture sorption and desorption study; conditions: for hygroscopicity (in words): moisture sorption and desorption study
Protocol: as §1, §2

- form conversion in slurry ([1]; slurry in acetone): converts to N-3 readily
- physical stability in accelerated stability studies [2]: physically unstable
SMILES: NC(=O)c1nn(-c2cccc(Cl)c2)c2c1CCN(c1ccc(-n3ccccc3=O)cc1)C2=O [Form N-1, 1-(3-chlorophenyl)-7-oxo-6-[4-(2-oxo-1(2H)pyridinyl)phenyl]-4,5,6,7-tetrahydro-1H-pyrazolo[3,4-c]pyridine-3-carboxamide]

- form conversion in slurry ([1]; slurry at 25 and 60° C.): converts to N-3
- form conversion in slurry ([1]; slurry in acetone at RT or about 50° C.): converts to Form N-3 readily
- moisture adsorption ([3]; at 90% RH at 25° C.): ~1.2%
- hygroscopicity (in words) [3]: nonhygroscopic
- physical stability in stability study ([2]; 40° C./75% RH/Open for 5 Weeks and 50° C./Closed for 4 Weeks): physically stable
SMILES: NC(=O)c1nn(-c2cccc(Cl)c2)c2c1CCN(c1ccc(-n3ccccc3=O)cc1)C2=O [Form N-2, 1-(3-chlorophenyl)-7-oxo-6-[4-(2-oxo-1(2H)pyridinyl)phenyl]-4,5,6,7-tetrahydro-1H-pyrazolo[3,4-c]pyridine-3-carboxamide]
- relative thermodynamic stability of polymorphs ([1]; 25° C. to 60° C.): thermodynamically less stable than polymorph N-3

- form conversion in solvents ([1]; in solvents (e.g., acetone)): converts to Form N-3
- form conversion in slurry ([1]; slurry in different solvents (e.g., acetone, ACN, DMSO/MTBE) at about 50° C.): converts to Form N-3
- hygroscopicity (in words) [3]: hygroscopic
- weight gain on adsorption ([3]; to 90% RH): ~16%
- physical stability in accelerated stability studies (XRPD assay) ([2]; stressed for 3 weeks, 40° C./75% RH/Open): physically unstable
SMILES: NC(=O)c1nn(-c2cccc(Cl)c2)c2c1CCN(c1ccc(-n3ccccc3=O)cc1)C2=O [Form P-1, 1-(3-chlorophenyl)-7-oxo-6-[4-(2-oxo-1(2H)pyridinyl)phenyl]-4,5,6,7-tetrahydro-1H-pyrazolo[3,4-c]pyridine-3-carboxamide]

- relative thermodynamic stability of polymorphs ([1]; room temperature to 60° C., from slurry conversions): thermodynamically more stable polymorph
- hysteresis in moisture sorption/desorption ([3]; up to 95% RH at 25° C.): no hysteresis was observed
- moisture sorption ([3]; up to 95% RH at 25° C.): 0.4%
- physical stability in accelerated stability studies [2]: physically stable
SMILES: NC(=O)c1nn(-c2cccc(Cl)c2)c2c1CCN(c1ccc(-n3ccccc3=O)cc1)C2=O [Form N-3, 1-(3-chlorophenyl)-7-oxo-6-[4-(2-oxo-1(2H)pyridinyl)phenyl]-4,5,6,7-tetrahydro-1H-pyrazolo[3,4-c]pyridine-3-carboxamide]
- relative thermodynamic stability of polymorphs ([1]; 25° C. to 60° C.): thermodynamically more stable than polymorphs N-1 and N-2
- hygroscopicity (in words) [3]: nonhygroscopic; also recorded: non-hygroscopic
